# Laboratory results published in article PMC6409085, “Three odorant-binding proteins are involved in the behavioral response of Sogatella furcifera to rice plant volatiles” (PeerJ, 2019).
# “And” between values parts separate entries of the source, which are not always exact repeats. Equal values may be shown once.
# Columns and labels:
# [1] = system: S. furcifera adults; assay: Y-tube olfactometer behavioral trials; type: in vivo, Sogatella furcifera; conditions: odorant 50 µL/L vs hexane; adults
# Procedure, shortened: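 Single S. furcifera adults (2 days post-emergence, starved 0.5 h) chose between odorant (100 µL of 50 µL/L on filter paper) and hexane control in a glass Y-tube, charcoal-filtered humidified air 300 mL/min per arm, 25 ± 1 °C, 50% RH. Choice scored if insect passed half an arm and stayed >1 min within 10 min; 45 insects per compound, chi-squared test.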
# [2] = biological target: SfurOBP2 (Sogatella furcifera, UniProt V5T759); assay: biochemical; type: binding
# Sequence of SfurOBP2 (V5T759 entry or part of it): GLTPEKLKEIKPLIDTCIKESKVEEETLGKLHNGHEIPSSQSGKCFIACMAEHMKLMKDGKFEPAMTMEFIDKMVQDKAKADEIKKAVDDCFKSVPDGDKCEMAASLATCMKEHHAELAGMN
# Procedure, shortened: (§1)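 Fluorescence competitive binding used 2.0 µM SfurOBP and 2.0 µM 1-NPN reporter in 50 mM Tris-HCl, pH 7.4, with odorants at 2-20 µM. Fluorescence was read 2 min after adding the odorant (excitation 337 nm, emission 390-490 nm), in triplicate. Ki was calculated from IC50 as IC50/(1 + [1-NPN]/K1-NPN).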
# [3] = biological target: SfurOBP3 (Sogatella furcifera, UniProt V5T818); assay: biochemical; type: binding; conditions: for Fluorescence competitive binding assay, fluorescence intensity: OBP3, three replicate columns
# Sequence of SfurOBP3 (V5T818 entry or part of it): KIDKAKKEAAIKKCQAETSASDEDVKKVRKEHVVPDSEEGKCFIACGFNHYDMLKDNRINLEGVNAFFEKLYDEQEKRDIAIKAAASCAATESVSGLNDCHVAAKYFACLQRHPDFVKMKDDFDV
# Procedure, shortened: as §1
# [4] = biological target: SfurOBP11 (Sogatella furcifera, UniProt V5T6E3); assay: biochemical; type: binding
# Sequence of SfurOBP11 (V5T6E3 entry or part of it): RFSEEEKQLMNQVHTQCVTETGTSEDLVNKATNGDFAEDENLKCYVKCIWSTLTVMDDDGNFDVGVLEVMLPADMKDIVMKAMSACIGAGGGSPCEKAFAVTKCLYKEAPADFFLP
# Procedure, shortened: as §1
# [5] = biological target: SfurOBP1 (Sogatella furcifera, UniProt V5T8N5); assay: biochemical; type: binding; conditions: for Fluorescence competitive binding assay, fluorescence intensity: OBP1, three replicate columns
# Sequence of SfurOBP1 (V5T8N5 entry or part of it): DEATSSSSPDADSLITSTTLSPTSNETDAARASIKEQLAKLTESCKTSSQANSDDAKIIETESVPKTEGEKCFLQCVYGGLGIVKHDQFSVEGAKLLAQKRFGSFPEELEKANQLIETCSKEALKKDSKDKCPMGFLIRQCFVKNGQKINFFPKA
# Procedure, shortened: as §1
compound,measurement,setting,value
CCCCCCCCCCCCCCCCCCC [n-nonadecane],number of insects choosing hexane arm,[1],13
same,number of insects choosing volatilies arm,[1],15
same,number of insects failed (no choice),[1],12
same,IC50,"[2]; SfurOBP2, protein and 1-NPN both 2.0 µM, competitor 2-20 µM, read-out: IC50",> 20 µM
same,"Fluorescence competitive binding assay, OBP2 (raw fluorescence reading)","[2]; ligand concentration 2 (unit not given), replicate column 1 of 3",22779
same,"Fluorescence competitive binding assay, OBP2 (raw fluorescence reading)","[2]; ligand concentration 2 (unit not given), replicate column 2 of 3",20086
same,"Fluorescence competitive binding assay, OBP2 (raw fluorescence reading)","[2]; ligand concentration 2 (unit not given), replicate column 3 of 3",21018
same,"Fluorescence competitive binding assay, OBP2 (raw fluorescence reading)","[2]; ligand concentration 4 (unit not given), replicate column 1 of 3",21686
same,"Fluorescence competitive binding assay, OBP2 (raw fluorescence reading)","[2]; ligand concentration 4 (unit not given), replicate column 2 of 3",22088
same,"Fluorescence competitive binding assay, OBP2 (raw fluorescence reading)","[2]; ligand concentration 4 (unit not given), replicate column 3 of 3",20918
same,"Fluorescence competitive binding assay, OBP2 (raw fluorescence reading)","[2]; ligand concentration 6 (unit not given), replicate column 1 of 3",24120
same,"Fluorescence competitive binding assay, OBP2 (raw fluorescence reading)","[2]; ligand concentration 6 (unit not given), replicate column 2 of 3",23625
same,"Fluorescence competitive binding assay, OBP2 (raw fluorescence reading)","[2]; ligand concentration 6 (unit not given), replicate column 3 of 3",22791
same,"Fluorescence competitive binding assay, OBP2 (raw fluorescence reading)","[2]; ligand concentration 8 (unit not given), replicate column 1 of 3",22496
same,"Fluorescence competitive binding assay, OBP2 (raw fluorescence reading)","[2]; ligand concentration 8 (unit not given), replicate column 2 of 3",24832
same,"Fluorescence competitive binding assay, OBP2 (raw fluorescence reading)","[2]; ligand concentration 8 (unit not given), replicate column 3 of 3",23266
same,"Fluorescence competitive binding assay, OBP2 (raw fluorescence reading)","[2]; ligand concentration 10 (unit not given), replicate column 1 of 3",22518
same,"Fluorescence competitive binding assay, OBP2 (raw fluorescence reading)","[2]; ligand concentration 10 (unit not given), replicate column 2 of 3",23515
same,"Fluorescence competitive binding assay, OBP2 (raw fluorescence reading)","[2]; ligand concentration 10 (unit not given), replicate column 3 of 3",22157
same,"Fluorescence competitive binding assay, OBP2 (raw fluorescence reading)","[2]; ligand concentration 12 (unit not given), replicate column 1 of 3",23732
same,"Fluorescence competitive binding assay, OBP2 (raw fluorescence reading)","[2]; ligand concentration 12 (unit not given), replicate column 2 of 3",24191
same,"Fluorescence competitive binding assay, OBP2 (raw fluorescence reading)","[2]; ligand concentration 12 (unit not given), replicate column 3 of 3",22198
same,"Fluorescence competitive binding assay, OBP2 (raw fluorescence reading)","[2]; ligand concentration 14 (unit not given), replicate column 1 of 3",22713
same,"Fluorescence competitive binding assay, OBP2 (raw fluorescence reading)","[2]; ligand concentration 14 (unit not given), replicate column 2 of 3",20356
same,"Fluorescence competitive binding assay, OBP2 (raw fluorescence reading)","[2]; ligand concentration 14 (unit not given), replicate column 3 of 3",21973
same,"Fluorescence competitive binding assay, OBP2 (raw fluorescence reading)","[2]; ligand concentration 16 (unit not given), replicate column 1 of 3",21871
same,"Fluorescence competitive binding assay, OBP2 (raw fluorescence reading)","[2]; ligand concentration 16 (unit not given), replicate column 2 of 3",23043
same,"Fluorescence competitive binding assay, OBP2 (raw fluorescence reading)","[2]; ligand concentration 16 (unit not given), replicate column 3 of 3",23038
same,"Fluorescence competitive binding assay, OBP2 (raw fluorescence reading)","[2]; ligand concentration 18 (unit not given), replicate column 1 of 3",25864
same,"Fluorescence competitive binding assay, OBP2 (raw fluorescence reading)","[2]; ligand concentration 18 (unit not given), replicate column 2 of 3",26767
same,"Fluorescence competitive binding assay, OBP2 (raw fluorescence reading)","[2]; ligand concentration 18 (unit not given), replicate column 3 of 3",25338
same,"Fluorescence competitive binding assay, OBP2 (raw fluorescence reading)","[2]; ligand concentration 20 (unit not given), replicate column 1 of 3",26712
same,"Fluorescence competitive binding assay, OBP2 (raw fluorescence reading)","[2]; ligand concentration 20 (unit not given), replicate column 2 of 3",23676
same,"Fluorescence competitive binding assay, OBP2 (raw fluorescence reading)","[2]; ligand concentration 20 (unit not given), replicate column 3 of 3",24323
same,"Fluorescence competitive binding assay, fluorescence intensity",[3]; ligand concentration 2,81706 and 89895 and 90926
same,"Fluorescence competitive binding assay, fluorescence intensity",[3]; ligand concentration 4,92466 and 96932 and 93745
same,"Fluorescence competitive binding assay, fluorescence intensity",[3]; ligand concentration 6,84153 and 91141 and 92184
same,"Fluorescence competitive binding assay, fluorescence intensity",[3]; ligand concentration 8,88550 and 83959 and 85903
same,"Fluorescence competitive binding assay, fluorescence intensity",[3]; ligand concentration 10,84955 and 81246 and 84347
same,"Fluorescence competitive binding assay, fluorescence intensity",[3]; ligand concentration 12,79099 and 81968 and 85076
same,"Fluorescence competitive binding assay, fluorescence intensity",[3]; ligand concentration 14,78930 and 78937 and 80614
same,"Fluorescence competitive binding assay, fluorescence intensity",[3]; ligand concentration 16,67688 and 71739 and 72376
same,"Fluorescence competitive binding assay, fluorescence intensity",[3]; ligand concentration 18,93819 and 87996 and 91999
same,"Fluorescence competitive binding assay, fluorescence intensity",[3]; ligand concentration 20,87679 and 80588 and 71651
same,IC50,"[3]; SfurOBP3, protein and 1-NPN both 2.0 µM, competitor 2-20 µM, read-out: IC50",> 20 µM
same,IC50,"[4]; SfurOBP11, protein and 1-NPN both 2.0 µM, competitor 2-20 µM, read-out: IC50",> 20 µM
same,"Fluorescence intensity, fluorescence competitive binding assay, OBP11","[4]; ligand concentration 2, replicate 1",39005
same,"Fluorescence intensity, fluorescence competitive binding assay, OBP11","[4]; ligand concentration 2, replicate 2",36085
same,"Fluorescence intensity, fluorescence competitive binding assay, OBP11","[4]; ligand concentration 2, replicate 3",36144
same,"Fluorescence intensity, fluorescence competitive binding assay, OBP11","[4]; ligand concentration 4, replicate 1",38725
same,"Fluorescence intensity, fluorescence competitive binding assay, OBP11","[4]; ligand concentration 4, replicate 2",39209
same,"Fluorescence intensity, fluorescence competitive binding assay, OBP11","[4]; ligand concentration 4, replicate 3",36494
same,"Fluorescence intensity, fluorescence competitive binding assay, OBP11","[4]; ligand concentration 6, replicate 1",38941
same,"Fluorescence intensity, fluorescence competitive binding assay, OBP11","[4]; ligand concentration 6, replicate 2",37869
same,"Fluorescence intensity, fluorescence competitive binding assay, OBP11","[4]; ligand concentration 6, replicate 3",35504
same,"Fluorescence intensity, fluorescence competitive binding assay, OBP11","[4]; ligand concentration 8, replicate 1",38326
same,"Fluorescence intensity, fluorescence competitive binding assay, OBP11","[4]; ligand concentration 8, replicate 2",38320
same,"Fluorescence intensity, fluorescence competitive binding assay, OBP11","[4]; ligand concentration 8, replicate 3",34260
same,"Fluorescence intensity, fluorescence competitive binding assay, OBP11","[4]; ligand concentration 10, replicate 1",39470
same,"Fluorescence intensity, fluorescence competitive binding assay, OBP11","[4]; ligand concentration 10, replicate 2",35190
same,"Fluorescence intensity, fluorescence competitive binding assay, OBP11","[4]; ligand concentration 10, replicate 3",34723
same,"Fluorescence intensity, fluorescence competitive binding assay, OBP11","[4]; ligand concentration 12, replicate 1",35740
same,"Fluorescence intensity, fluorescence competitive binding assay, OBP11","[4]; ligand concentration 12, replicate 2",35339
same,"Fluorescence intensity, fluorescence competitive binding assay, OBP11","[4]; ligand concentration 12, replicate 3",34546
same,"Fluorescence intensity, fluorescence competitive binding assay, OBP11","[4]; ligand concentration 14, replicate 1",33030
same,"Fluorescence intensity, fluorescence competitive binding assay, OBP11","[4]; ligand concentration 14, replicate 2",32494
same,"Fluorescence intensity, fluorescence competitive binding assay, OBP11","[4]; ligand concentration 14, replicate 3",31487
same,"Fluorescence intensity, fluorescence competitive binding assay, OBP11","[4]; ligand concentration 16, replicate 1",29383
same,"Fluorescence intensity, fluorescence competitive binding assay, OBP11","[4]; ligand concentration 16, replicate 2",30154
same,"Fluorescence intensity, fluorescence competitive binding assay, OBP11","[4]; ligand concentration 16, replicate 3",29504
same,"Fluorescence intensity, fluorescence competitive binding assay, OBP11","[4]; ligand concentration 18, replicate 1",32894
same,"Fluorescence intensity, fluorescence competitive binding assay, OBP11","[4]; ligand concentration 18, replicate 2",34140
same,"Fluorescence intensity, fluorescence competitive binding assay, OBP11","[4]; ligand concentration 18, replicate 3",29208
same,"Fluorescence intensity, fluorescence competitive binding assay, OBP11","[4]; ligand concentration 20, replicate 1",31537
same,"Fluorescence intensity, fluorescence competitive binding assay, OBP11","[4]; ligand concentration 20, replicate 2",29929
same,"Fluorescence intensity, fluorescence competitive binding assay, OBP11","[4]; ligand concentration 20, replicate 3",28655
same,"Fluorescence competitive binding assay, fluorescence intensity",[5]; ligand concentration 2 (μM),5361 and 5140 and 5582
same,"Fluorescence competitive binding assay, fluorescence intensity",[5]; ligand concentration 4 (μM),6690 and 6608 and 6742
same,"Fluorescence competitive binding assay, fluorescence intensity",[5]; ligand concentration 6 (μM),8870 and 9897 and 7869
same,"Fluorescence competitive binding assay, fluorescence intensity",[5]; ligand concentration 8 (μM),7482 and 6593 and 11079
same,"Fluorescence competitive binding assay, fluorescence intensity",[5]; ligand concentration 10 (μM),7327 and 7941 and 8862
same,"Fluorescence competitive binding assay, fluorescence intensity",[5]; ligand concentration 12 (μM),8260 and 9027 and 8555
same,"Fluorescence competitive binding assay, fluorescence intensity",[5]; ligand concentration 14 (μM),9439 and 7708 and 9780
same,"Fluorescence competitive binding assay, fluorescence intensity",[5]; ligand concentration 16 (μM),8450 and 9204 and 7552
same,"Fluorescence competitive binding assay, fluorescence intensity",[5]; ligand concentration 18 (μM),9810 and 13450 and 9951
same,"Fluorescence competitive binding assay, fluorescence intensity",[5]; ligand concentration 20 (μM),10406 and 10007 and 8824
same,IC50,"[5]; SfurOBP1, protein and 1-NPN both 2.0 µM, competitor 2-20 µM, read-out: IC50",> 20 µM
